Assay results as given in patent publication US11041184B2, “Mycobacteriophages capable of delivering auto-luminescent elements and uses thereof” (priority 2016, dated 2021).

Tested on: Mtb
Assay: detecting sensitivity of a host bacterial strain (Mtb) to a drug with the ARP phage, luminescence read with a luminometer
Type: cell-based, Mycobacterium tuberculosis
Conditions: for bioluminescence intensity compared to a control: culture at 37° C. for at least 4 hours, DMSO control
[1] = 37° C., at least 4 hours, RIF 2 μg/mL, INH 1 μg/mL, LZD 1 μg/mL, PNU 0.5 μg/mL
[2] = FIG. 12, RIF 2 μg/mL, INH 1 μg/mL, LZD 1 μg/mL, PNU 0.5 μg/mL

Compound | sensitivity of Mtb to the drug at the concentration [1] | bioluminescence intensity compared to a control [2] | bioluminescence compared to a control (FIG. 12, culture for 8 hours, EMB 5 μg/mL) | statistical difference between drug group and DMSO control (n.s., p>0.05) (FIG. 12 legend, EMB 5 μg/mL, time not printed in legend) | sensitivity of Mtb to the drug at the concentration (culture for 8 hours, EMB 5 μg/mL)
NNC(=O)c1ccncc1 [isoniazid] | sensitivities | significant decrease of bioluminescence intensity | – | – | –
CC(=O)NC[C@H]1CN(c2ccc(N3CCOCC3)c(F)c2)C(=O)O1 [linezolid] | sensitivities | significant decrease of bioluminescence intensity | – | – | –
CC[C@@H](CO)NCCN[C@@H](CC)CO [ethambutol] | – | – | significant decrease in bioluminescence | no statistical difference | sensitivity
